Measured values: publication PMC9243584, “Population Pharmacokinetics of Colistin Sulfate in Critically Ill Patients: Exposure and Clinical Efficacy” (Frontiers in Pharmacology, 2022)
Where a name gives a salt, the structure may show the parent alone. Read-outs that look alike come from different tables or passages of the source. Positions of bridges follow the written chain, without caps; N, C: chain ends. Non-standard residues stand in square brackets, D forms with d. Residues, ends and D or L forms follow the SMILES beside them. *: point of attachment. X1 = CC[C@H](C)CCCCC(=O)*; Dab = NCC[C@H](N)C(=O)O

Columns and labels:
[1] = Population pharmacokinetic modeling (NONMEM) of intravenous colistin sulfate from plasma concentrations in critically ill patients; format: in vivo, human
From the text: This retrospective, observational study was designed in accordance with the Declaration of Helsinki and was approved by the Ethical Committees of the First Affiliated Hospital of Wenzhou Medical University, China ([2022]036). Adult patients receiving colistin sulfate for confirmed multi-resistant Gram-negative bacterial infections from January 2020 to December 2021 at the First Affiliated Hospital of Wenzhou Medical University were selected. The inclusion criteria were as follows: a) ≥18 years of age; b) receiving colistin sulfate (Shanghai New Asia Pharmaceuticals, Shanghai, China) for at least 3 days; and c) at least one plasma concentration of colistin was collected.
The decision to administer colistin sulfate and its dosing regimen (dose amount, dosing interval, ways of administration, and treatment duration) was made by the attending physician. A loading dose of 1 million IU and a daily dose of 1.5 million IU divided into 2–3 times (maintenance dose) administered using an intravenous drip was recommended by the label sheet of colistin sulfate. In addition, for patients with pulmonary infection, inhalation of colistin sulfate (250,000 IU q12 h) was combinedly used; for patients with intracranial infection, colistin sulfate (50,000 IU q24 h) administered by the intraventricular/intrathecal (IVT/IT) route was combinedly used.
Plasma samples of colistin sulfate were collected after reaching the steady-state (attained after at least six doses). Dates and exact time of colistin sulfate administration and plasma sample collection were able to be indexed from the medical records. Plasma samples were separated by centrifugation for 5 min at 15,000 rpm immediately after sampling. The quantification of plasma concentration of colistin sulfate was performed using a validated high-performance liquid chromatography-tandem mass spectrometry assay ([Gobin et al., 2010]). The calibration ranges for colistin were 0.1–20 μg/ml. The method validations including calibration curve, selectivity, accuracy, precision, matrix effect, recovery, and stability met the requirement of FDA principles.
PopPK analysis was performed using the nonlinear mixed-effects modeling program NONMEM (version 7.4, Icon Development Solutions, Ellicott City, MD, USA) and Pirana (version 2.9.7). R (version 3.6.0) and Xpose (version 4.3.2) software packages were applied to generate diagnostic plots.
One- and two-compartment structural models with first-order elimination were explored for the concentration–time profiles of colistin sulfate. Between-subject variability (BSV) was assessed using an exponential function. Residual variability was assessed using additive, proportional, or combined (additive plus proportional) error models. The base model was selected based on the visual inspection of diagnostic plots and goodness-of-fit criteria, including precision and plausibility of parameter estimation and improvement of the objective function value (OFV).
Relationships between individual empirical Bayesian estimates of PK parameters and patient covariates were examined visually. Covariates were included using a stepwise forward selection process until no further decrease in OFV was observed. All of the significant covariates were then incorporated into the basic model to construct a full model. The included covariates were further assessed using backward elimination. The additional criterion for retaining the covariate in the final model was the decrease in the unexplained BSV and increase in PK parameter estimate precision.
Goodness-of-fit plots, nonparametric bootstrap, and visual predictive check were performed to evaluate the final model and parameter estimates. A nonparametric bootstrap procedure was conducted to assess the performance and stability of the final model. Random sampling with replacement was utilized to generate 1,000 replicate datasets using the individual as the sampling unit. […]

[2] = Acute kidney injury (RIFLE criteria) and colistin sulfate-related nephrotoxicity (Naranjo criteria); format: in vivo, human; conditions: 42 patients, not considered colistin's nephrotoxicity by Naranjo criteria
Procedure: Acute kidney injury (AKI) during the treatment of colistin sulfate was assessed using RIFLE criteria. AKI was defined as a 1.5-fold or more increase in serum creatinine and/or a decrease in the glomerular filtration rate (GFR) of 25% or more ([Han et al., 2022]). The definition of nephrotoxicity caused by colistin sulfate was further confirmed using the Naranjo criteria.

[3] = critically ill patients, ref Cheah et al., 2015, cited from earlier work
[4] = test system: isolates with lower MIC values (≤2 μg/ml); conditions: isolates with MIC ≤2 μg/ml for both compounds; ref Sader et al., 2015; cited from earlier work
From the text: (§1) It should be noted that the currently used colistin sulfate in China was reapproved for clinical use by the Chinese National Medical Products Administration (NPMA) in 2018. Thus, modern pharmacological data including the clinical efficacy and side effects have not been reported. […] The clinical efficacy of colistin sulfate in the current study was similar to the efficacy of polymyxin B reported by [Lu et al. (2021]), who performed a retrospec ...

[5] = ref Han et al., 2022; cited from earlier work
From the text: as §1, with “... || Nephrotoxicity is the main toxicity of concern with the treatment of polymyxins. However, it is amazing that no patient developed colistin sulfate-related nephrotoxicity in our study. […] Considering that polymyxin B and colistin have very similar molecular structures and PK characteristics, it is reasonable to conclude that the safety threshold of nephrotoxicity of colistin sulfate approaches that of polymyxin B. In the current study, most patient ...” for “...”

[6] = parameters: method as in 2 sources, one per row (each row's own in cited_ref): ref Yu et al., 2021 ||| ref Wang et al., 2020; conditions: cited from earlier work
[7] = test system: CRO; conditions: retrospective study, Chinese patients with CRO infections, median daily dose 1.72 mg/kg; ref Lu et al. (2021); cited from earlier work
From the text: as §1

Compound	CrCL on CL (θ1) ([1]; final model, covariate coefficient in CL = 0.994 + 0.525×CrCL/66.47)	TVV (typical value of volume of distribution) ([1]; final model, one-compartment) [L]	TVCL (typical value of clearance) ([1]; final model, one-compartment, CL = 0.994 + 0.525×CrCL/66.47) [L/h]	clearance ([1]; human, plasma, iv, base model (Table S1), read-out: TVCL (converted)) [mL/min]	Vd ([1]; human, plasma, iv, base model (Table S1), read-out: TVV) [L]	Vd ([1]; human, plasma, iv, final model, one-compartment, read-out: TVV (typical value of volume of distribution)) [L]	clearance ([1]; human, plasma, iv, mean ± SD across all 42 patients, SD, read-out: CL, individual empirical Bayesian estimate (converted)) [mL/min]	AUC(0-t) ([1]; human, plasma, iv, mean ± SD, MAP Bayesian estimate per patient with the final PK model, SD, read-out: AUC (AUC0-24 at steady state, AUC0-24,ss)) [ng·h/mL]	patients who developed AKI during the treatment [2]	plasma unbound fraction [3]	plasma unbound fraction ([3]; listed as colistin)	potency compared with polymyxin B [4]	Cmin to prevent polymyxin B-related nephrotoxicity [5]	median CL ([6]; Chinese adult patients, ref Wang et al., 2020) [L/h]	CL ([6]; mean ± SD, adult critically ill patients, 112 concentrations from 32 patients, ref Yu et al., 2021, SD) [L/h]	V ([6]; one-compartment model, adult critically ill patients, ref Yu et al., 2021) [L]	patients who achieved clinical success [7] [%]
CC[C@H](C)CCCCC(=O)N[C@@H](CCN)C(=O)N[C@H](C(=O)N[C@@H](CCN)C(=O)N[C@H]1CCNC(=O)[C@H]([C@@H](C)O)NC(=O)[C@H](CCN)NC(=O)[C@H](CCN)NC(=O)[C@H](CC(C)C)NC(=O)[C@@H](CC(C)C)NC(=O)[C@H](CCN)NC1=O)[C@@H](C)O [colistin sulfate] (X1-[Dab]T[Dab][Dab][Dab][dL]L[Dab][Dab]T; lactam 4-C)	0.525	20.7	0.994	27.2	20.6	20.7	29	39400 ± 14500	two	0.5	about 0.5	slightly greater potency than polymyxin B	–	–	–	–	–
polymyxin B sulfate	–	–	–	–	–	–	–	–	–	–	–	–	below 3.13 mg/L	1.78	1.75	20.5	57.6
